Test results as given in patent US9303045B2, “5-HT3 receptor antagonists” (Takeda Pharmaceutical Company Limited, priority 2013, dated 2016).
Structures can show the parent of a compound that is named as a salt.

The molecules below were run against 5HT3a receptor expressed in HEK-293T cells (Homo sapiens (Human), UniProt P46098) (assay: Inhibition of Ca flux activity of 5HT3 in vitro assay). Details: calcium flux, 5HT 216 nM, approximate values.
5HT3a receptor expressed in HEK-293T cells, sequence (P46098 24-478): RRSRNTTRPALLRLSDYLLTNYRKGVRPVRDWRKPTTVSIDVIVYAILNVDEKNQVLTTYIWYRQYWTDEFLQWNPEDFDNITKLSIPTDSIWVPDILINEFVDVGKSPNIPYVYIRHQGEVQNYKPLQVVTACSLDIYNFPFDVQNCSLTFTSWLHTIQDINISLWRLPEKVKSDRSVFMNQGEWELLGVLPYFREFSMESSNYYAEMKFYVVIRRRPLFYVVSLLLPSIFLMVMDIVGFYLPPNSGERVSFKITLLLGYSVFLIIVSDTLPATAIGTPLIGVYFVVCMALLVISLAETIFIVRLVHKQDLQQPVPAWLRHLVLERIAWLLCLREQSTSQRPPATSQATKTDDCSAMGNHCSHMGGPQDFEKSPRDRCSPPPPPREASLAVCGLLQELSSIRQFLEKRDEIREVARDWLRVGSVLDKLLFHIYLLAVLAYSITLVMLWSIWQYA
Format: cell-based
Method: Inhibition of Ca Flux Activity of 5HT3 In Vitro Assay
The 5HT3 antagonist activity of the compounds of the invention was determined by measuring the ability of the compounds to inhibit the calcium flux activity of […] receptor expressed in HEK-293T cells. HEK-293T cells were transfected with the 5HT3a expression construct using Xtreme Gene 9 (Roche) in 150 mm tissue culture treated plates and incubated for 24 hours at 37° C. Cells were then split and plated at a density of 60K cells/well in poly-lysine coated, black 96-well plates with clear bottoms (BD BioSciences) and incubated overnight at 37° C. Growth media was removed and cells loaded with 200 uL calcium indicator dye in HBSS containing 20 mM HEPES (Calcium 5 Assay kit, Molecular Devices) and incubated at 37° C. for 1 hour. While cells were incubating, the 10× antagonist and agonist/antagonist addition plates were made. For 10× antagonist plate: half log serial dilutions (final concentrations range from 10^−7 through 10^−10 with the bottom well a negative, no ligand control) were made from test compounds in DMSO at a 1000× concentration and then diluted to 10× in HBSS/20 mM HEPES. For addition plate: 5HT was diluted to 100× in HBSS/20 mM HEPES (final concentration in the assay—216 nM) and 15 uL was added to each well of the addition plate, 15 uL of 10× compound was also added to the addition plate, and finally 120 uL of HBSS/20 mM HEPES (for a total of 150 uL). Cells were then removed from the incubator and equilibrated to room temperature for 10 minutes, then 22.5 uL of 10× test compounds were added in triplicate to the plates and incubated at room temperature for 10 minutes (Tropisetron was used as a positive control in every assay). Test plate and addition plate were loaded into the FlexStation III (Molecular Devices), and using the fluidics, 22.5 uL compound additions were made (at t=˜17 seconds), and fluorescence was measured for 90 seconds, reading every 2.2 seconds. Data sets were analyzed as max minus min using Software Max Pro (Molecular Devices). IC50 curves were generated using non-linear regression in GraphPad Prism.
With `O=C(OC1C[C@H]2COC[C@@H](C1)N2)c1cn(S(=O)(=O)C2CC2)c2ccccc12` (stereo partly drawn) [Example 134, (1R,5S,7S)-3-oxa-9-azabicyclo[3.3.1]nonan-7-yl 1-(cyclopropylsulfonyl)-1H-indole-3-carboxylate, 2,2,2-trifluoroacetate] the IC50 was 1.99 nM. `CN(C(=O)c1cn(-c2cnsc2)c2ccccc12)[C@H]1C[C@H]2COC[C@@H](C1)N2` [Example 185, N-((1R,5S,7S)-3-oxa-9-azabicyclo[3.3.1]nonan-7-yl)-1-(isothiazol-4-yl)-N-methyl-1H-indole-3-carboxamide] gave an IC50 of 3.06 nM. `CN1[C@@H]2CC[C@H]1CC(OC(=O)c1cn([C@@H]3CCOC3)c3ccccc13)C2` (stereo partly drawn) [Example 83, (1R,3R,5S)-8-methyl-8-azabicyclo[3.2.1]octan-3-yl 1-((R)-tetrahydrofuran-3-yl)-1H-indole-3-carboxylate, 2,2,2-trifluoroacetate] gave an IC50 of 1.04 nM. Work on `O=C(O[C@H]1CC[N@@]2CCO[C@@H]1C2)c1cn(CC(F)F)c2ccc(F)cc12` [Example 91, (1S,5R,6S)-4-oxa-1-azabicyclo[3.3.1]nonan-6-yl 1-(2,2-difluoroethyl)-5-fluoro-1H-indole-3-carboxylate, 2,2,2-trifluoroacetate] yielded an IC50 greater than 1000 nM. For `CN1[C@@H]2CC[C@H]1C[C@@H](NC(=O)c1nn(CC(F)F)c3ccccc13)C2` [Example 90, 1-(2,2-difluoroethyl)-N-((1R,3R,5S)-8-methyl-8-azabicyclo-[3.2.1]octan-3-yl)-1H-indazole-3-carboxamide, 2,2,2-trifluoroacetate], the IC50 was 0.75 nM. `CN1[C@@H]2CCC[C@H]1CC(OC(=O)c1cn(CCF)c3ccccc13)C2` (stereo partly drawn) [Example 87, (1R,3R,5S)-9-methyl-9-azabicyclo[3.3.1]nonan-3-yl 1-(2-fluoroethyl)-1H-indole-3-carboxylate, 2,2,2-trifluoroacetate] gave an IC50 of 0.18 nM. Work on `CN1[C@@H]2COC[C@H]1CC(OC(=O)c1cn(S(C)(=O)=O)c3ccc(F)cc13)C2` (stereo partly drawn) [Example 99, (1R,5S,7S)-9-methyl-3-oxa-9-azabicyclo[3.3.1]nonan-7-yl 5-fluoro-1-(methylsulfonyl)-1H-indole-3-carboxylate, 2,2,2-trifluoroacetate] yielded an IC50 of 0.29 nM. Molecule `O=C(N[C@H]1CN2CCC1CC2)c1cn(CC(F)F)c2ncccc12` [Example 67, (R)-1-(2,2-difluoroethyl)-N-(quinuclidin-3-yl)-1H-pyrrolo[2,3-b]pyridine-3-carboxamide, 2,2,2-trifluoroacetate] has an IC50 greater than 1000 nM. “(1R,5S,7s)-9-methyl-3-oxa-9-azabicyclo[3.3.1]nonan-7-yl 1-(6-hydroxypyridazin-3-yl)-1H-indole-3-carboxylate, 2,2,2-trifluoroacetic acid salt [Example 32]” gave an IC50 of 1.38 nM. Molecule `CN1[C@@H]2COC[C@H]1C[C@@H](NC(=O)c1cn(C(F)(F)C(F)F)c3ncc(F)cc13)C2` [Example 53, 5-fluoro-N-((1R,5S,7S)-9-methyl-3-oxa-9-azabicyclo[3.3.1]-nonan-7-yl)-1-(1,1,2,2-tetrafluoroethyl)-1H-pyrrolo[2,3-b]pyridine-3-carboxamide, 2,2,2-trifluoroacetate] has an IC50 of 1.05 nM. Work on `Cn1ccc(-n2cc(C(=O)O[C@H]3C[C@H]4COC[C@@H](C3)N4)c3ccccc32)cc1=O` [Example 168, 1R,5S,7s)-3-oxa-9-azabicyclo[3.3.1]nonan-7-yl 1-(1-methyl-2-oxo-1,2-dihydropyridin-4-yl)-1H-indole-3-carboxylate, 2,2,2-trifluoroacetic acid salt] yielded an IC50 of 1.17 nM. For `CN1C2CCC1CC(OC(=O)c1cn(CC(F)F)c3ccccc13)C2` [Example 40, (1R,3R,5S)-8-methyl-8-azabicyclo[3.2.1]octan-3-yl 1-(2,2-difluoroethyl)-1H-indole-3-carboxylate, 2,2,2-trifluoroacetate], the IC50 was 0.78 nM. Work on “(1R,5S,7s)-3-oxa-9-azabicyclo[3.3.1]nonan-7-yl 1-(pyrazin-2-yl)-1H-indole-3-carboxylate, 2,2,2-trifluoroacetic acid salt [Example 27]” yielded an IC50 of 0.89 nM. With `CN1[C@@H]2CC[C@H]1CC(OC(=O)c1c3n(c4ccccc14)CCCO3)C2` (stereo partly drawn) [Example 85, (1R,3R,5S)-8-methyl-8-azabicyclo[3.2.1]octan-3-yl 3,4-dihydro-2H-[1,3]oxazino[3,2-a]indole-10-carboxylate, 2,2,2-trifluoroacetate] the IC50 was 1.04 nM. In the case of `CC(C)S(=O)(=O)n1cc(C(=O)O[C@H]2C[C@H]3COC[C@@H](C2)N3)c2ccccc21`, the IC50 is reported as 1.8 nM. `CN1[C@@H]2COC[C@H]1CC(NC(=O)c1cn(CC(F)(F)F)c3ncc(F)cc13)C2` (stereo partly drawn) [Example 52, 5-fluoro-N-((1R,5S,7S)-9-methyl-3-oxa-9-azabicyclo[3.3.1]-nonan-7-yl)-1-(2,2,2-trifluoroethyl)-1H-pyrrolo[2,3-b]pyridine-3-carboxamide, 2,2,2-trifluoroacetate] gave an IC50 of 1.05 nM. In the case of `CN1C2CCC1CC(NC(=O)c1cn(CC(F)(F)F)c3ncccc13)C2` [Example 102, N-((1R,3R,5S)-8-methyl-8-azabicyclo[3.2.1]octan-3-yl)-1-(2,2,2-trifluoroethyl)-1H-pyrrolo[2,3-b]pyridine-3-carboxamide, 2,2,2-trifluoroacetate], the IC50 is reported as greater than 1000 nM. With `CN1[C@@H]2COC[C@H]1CC(NC(=O)c1cn(-c3cccnn3)c3ccccc13)C2` (stereo partly drawn) [Example 117, N-((1R,5S,7S)-9-methyl-3-oxa-9-azabicyclo[3.3.1]nonan-7-yl)-1-(pyridazin-3-yl)-1H-indole-3-carboxamide, 2,2,2-trifluoroacetate] the IC50 was 0.39 nM. With `CN1[C@@H]2COC[C@H]1CC(NC(=O)c1cn(CC(F)(F)F)c3ccccc13)C2` (some centres unmarked) the IC50 was 0.68 nM. `CN1[C@@H]2CC[C@H]1CC(OC(=O)c1cn(C3CCOC3)c3ccccc13)C2` (stereo partly drawn) [Example 42, (1R,3R,5S)-8-methyl-8-azabicyclo[3.2.1]octan-3-yl 1-(tetrahydrofuran-3-yl)-1H-indole-3-carboxylate, 2,2,2-trifluoroacetate] gave an IC50 of 0.94 nM. `CN1[C@@H]2COC[C@H]1C[C@@H](NC(=O)c1cn(-c3cncn3C)c3ccccc13)C2` [Example 154, 1-(1-methyl-1H-imidazol-5-yl)-N-((1R,5S,7s)-9-methyl-3-oxa-9-azabicyclo[3.3.1]nonan-7-yl)-1H-indole-3-carboxamide] gave an IC50 of 0.328 nM. Work on “(1R,5S,7s)-3-oxa-9- azabicyclo[3.3.1]nonan- 7-yl 1-(isothiazol-5-yl)- 1H-indole-3- carboxamide, 2,2,2- trifluoroacetic acid salt [Example 155]” yielded an IC50 of 1.26 nM. In the case of `CN1C2CCC1CC(OC(=O)c1nn(CCF)c3ccccc13)C2` [Example 57, (1R,3R,5S)-8-methyl-8-azabicyclo[3.2.1]octan-3-yl 1-(2-fluoroethyl)-1H-indazole-3-carboxylate, 2,2,2-trifluoroacetate], the IC50 is reported as greater than 1000 nM. In the case of `CS(=O)(=O)n1cc(C(=O)O[C@H]2C[C@H]3COC[C@@H](C2)N3)c2cc(F)ccc21` [Example 132, (1R,5S,7S)-3-oxa-9-azabicyclo[3.3.1]nonan-7-yl 5-fluoro-1-(methylsulfonyl)-1H-indole-3-carboxylate, 2,2,2-trifluoroacetate], the IC50 is reported as 2.3 nM. “(1R,5S,7s)-3-oxa-9-azabicyclo[3.3.1]nonan-7-yl 1-(2-cyanophenyl)-1H-indole-3-carboxylate, 2,2,2-trifluoroacetic acid salt [Example 28]” was tested, and the IC50 was 1.08 nM. In the case of `Cc1c(C(=O)OC2C[C@H]3CCC[C@@H](C2)N3C)c2ccccc2n1CCF` (stereo partly drawn) [Example 88, (1R,3R,5S)-9-methyl-9-azabicyclo[3.3.1]nonan-3-yl 1-(2-fluoroethyl)-2-methyl-1H-indole-3-carboxylate, 2,2,2-trifluoroacetate], the IC50 is reported as 0.22 nM. For `CN1[C@@H]2COC[C@H]1CC(NC(=O)c1cn(CC(F)F)c3ncc(F)cc13)C2` (stereo partly drawn) [Example 109, 1(2,2-difluoroethyl)-5-fluoro-N-((1R,5S,7S)-9-methyl-d3-3-oxa-9-azabicyclo[3.3.1]nonan-7-yl)-1H-pyrrolo[2,3-b]pyridine-3-carboxamide], the IC50 was 1.11 nM. For `CN1[C@@H]2COC[C@H]1CC(NC(=O)c1cn(CC(F)(F)F)c3ccc(F)cc13)C2` (stereo partly drawn) [Example 112, 1-(2,2,2-trifluoroethyl)-5-fluoro-N-((1R,5S,7S)-9-methyl-d3-3-oxa-9-azabicyclo[3.3.1]nonan-7-yl)-1H-indole-3-carboxamide, 2,2,2-trifluoroacetate], the IC50 was 0.53 nM. `CN1[C@@H]2CCC[C@H]1CC(OC(=O)c1cn(CC(F)(F)F)c3ccc(F)cc13)C2` (stereo partly drawn) [Example 89, (1R,3R,5S)-9-methyl-9-azabicyclo[3.3.1]nonan-3-yl 5-fluoro-1-(2,2,2-trifluoroethyl)-1H-indole-3-carboxylate, 2,2,2-trifluoroacetate] showed an IC50 of 0.66 nM.
